Measured values: patent US10759785B2, “Compounds” (ENTERPRISE THERAPEUTICS LIMITED, priority 2016, dated 2020)
Structures can show the parent of a compound that is named as a salt.

Key:
Assay type in all cases: in vitro ADME
[1] = Microsomal stability (rat microsomes); conditions: pH 7.4, 1 μM test compound, 0.5 mg/mL protein, 1 mM NADPH, 37° C., read-out: Averages. Mic Half Life Rat
Method: (§1) Example 28—Microsomal Stability
(§2) Microsomes (rat and human) were obtained from Bioreclamation. Test compound stock solutions in DMSO (10 mM) were diluted with DMSO to 2 mM. Further dilution was completed to achieve a 100 μM stock (final concentrations; 91.5% Acetonitrile: 8.5% DMSO). Final test compound concentration in incubation was 1 μM (<0.1% DMSO). The following probe substrates were used: verapamil, propranolol, metoprolol and phenacetin (rat) at a final incubation concentration of 1 μM. Assay buffer—Solution 1: 17.4 g potassium phosphate dibasic anhydrous (K2HPO4, 0.1 M) dissolved in 1 L deionised water. Solution 2: 13.6 g potassium phosphate monobasic anhydrous (KH2PO4, 0.1 M) dissolved in 1 L deionised water. Potassium phosphate solutions 1 and 2 were combined to form a pH 7.42 solution at 37° C. pH 7.4 with 2 mM magnesium chloride. NADPH (10 mM)—diluted in deionised water. Frozen microsomes were thawed at 37° C. Microsomes were diluted in assay buffer to achieve a final protein concentration of 0.5 mg/mL and 1 mM NADPH. The following procedure was completed on a Perkin Elmer Janus robotic platform in 96 well format: The microsomal incubation plate was transferred to a heater shaker at 300 rpm and solution heated to 37° C. for 10 min pre-warm. A no co-factor control at 0 and 45 min and one replicates of each test compound was included in every assay. Microsomes were incubated at 37° C., on a shaker set at 300 rpm throughout the assay. At each timepoint (0, 5, 15, 30, 45 min) 50 μL of sample was removed from the 96-well and added to 200 μL of quench solution (acetonitrile containing 0.1% formic acid and imipramine/labetalol, 200 nM). Samples were diluted 1:1 with water using the Janus Robot and analysed by LC-MS/MS.

[2] = Hepatic stability (human cryopreserved hepatocytes); conditions: 1×10^6 cells/mL, 37° C.; for half-life at 1 μM: cryopreserved hepatocytes, pH 7.4, 1 μM test compound, read-out: Averages. Hep Half Life Human; for Averages. Hep Half Life Human: 1 μM test compound
Method: (§3) Example 29—Hepatic Stability
(§4) Cryopreserved hepatocytes (rat and human) were obtained from Bioreclamation. Test compound stock solutions in DMSO (10 mM) were diluted with DMSO to 4 mM. Further dilution was completed to achieve a 100 μM stock (5 μL of 4 mM in 195 μL of 50:50 DMSO:hepatocyte buffer). Final test compound concentration in incubation was 1 μM. The following probe substrates were used: testosterone and carbamazepine at a final incubation concentration of 1 μM. Hepatocyte buffer was prepared (Williams E media containing phenol red and Glutamax™, 15 mM HEPES, warmed to 37° C., pH7.4 with NaOH). Cells were removed from liquid nitrogen, thawed in a waterbath, decanted into 50 mL of pre-warmed Cryopreserved Hepatocyte Recovery Media (LifeTechnologies) and centrifuged. Supernatant fraction was removed, cells were re-suspended in hepatocyte buffer and counted by trypan blue exclusion. Cell viability of >80% was required for all assays. Cells were re-suspended to 1×10^6/mL and 198 μL cell suspension added to each 96-well. 2 μL of 100 μM compound stock solution was added to relevant wells to initiate the incubation. A no cell control and two replicates of each test compound was included in every assay. Cells were incubated at 37° C., on a shaker set at 300 rpm. At each timepoint (0, 15, 30, 45, 60, 90 min) 20 μL of sample was removed from the 96-well and added to 80 μL of quench solution (acetonitrile containing 0.1% formic acid and imipramine/labetalol, 200 nM). Samples were diluted 1:1 with water using the Janus Robot and analysed by LC-MS/MS.

[3] = Microsomal stability (human microsomes); conditions: 0.5 mg/mL protein, 1 mM NADPH, 37° C.; for half-life at 1 μM: pH 7.4, 1 μM test compound, read-out: Averages. Mic Half Life Human; for Averages. Mic Half Life Human: 1 μM test compound
Method: as §1, §2

[4] = Hepatic stability (rat cryopreserved hepatocytes); conditions: pH 7.4, 1 μM test compound, 1×10^6 cells/mL, 37° C., read-out: Averages. Hep Half Life Rat
Method: as §3, §4

Structure (SMILES)	half-life at 1 μM [1] [min]	half-life at 1 μM [2] [min]	half-life at 1 μM [3] [min]	half-life at 1 μM [4] [min]	Averages. Mic Half Life Human [3] [min]	Averages. Hep Half Life Human [2] [min]
CCn1c(CNC(=O)c2nc(C#N)cnc2N)[n+](CC)c2ccc(OC)cc21 [Example 26, 2-{[(3-amino-6-cyanopyrazin-2-yl)formamido]methyl}-1,3-diethyl-6-methoxy-1H-1,3-benzodiazol-3-ium formate]	< 3	232	> 138	23	–	–
CCn1c(CNC(=O)c2nc(Br)cnc2N)[n+](CC)c2ccc(C(=O)OC)cc21.[I-] [Example 15, 2-{[(3-amino-6-bromopyrazin-2-yl)formamido]methyl}-1,3-diethyl-6-(methoxycarbonyl)-1H-1,3-benzodiazol-3-ium iodide]	11	154	–	14	138	–
CCn1c(CNC(=O)c2nc(Cl)cnc2N)[n+](C)c2ccc(OC)cc21.[I-] [Example 5, 2-{[(3-amino-6-chloropyrazin-2-yl)formamido]methyl}-1-ethyl-6-methoxy-3-methyl-1H-1,3-benzodiazol-3-ium iodide]	4	68	12	5	–	–
CCn1c(CNC(=O)c2nc(Br)cnc2N)[n+](CC)c2ccc(-c3cnn(C4CCN(C(=O)OC(C)(C)C)CC4)c3)cc21.[I-] [Example 20, 2-{[(3-amino-6-bromopyrazin-2-yl)formamido]methyl}-6-(1-{1-[(tert-butoxy)carbonyl]piperidin-4-yl}-1H-pyrazol-4-yl)-1,3-diethyl-1H-1,3-benzodiazol-3-ium iodide]	61	70	> 138	20	–	–
CCc1cnc(N)c(C(=O)NCc2n(CC)c3cc(OC)ccc3[n+]2C)n1.[I-] [Example 8, 2-{[(3-amino-6-ethylpyrazin-2-yl)formamido]methyl}-1-ethyl-6-methoxy-3-methyl-1H-1,3-benzodiazol-3-ium iodide]	3	–	23	–	–	–
CCn1c(CNC(=O)c2nc(Br)cnc2N)[n+](CC)c2ccc(OCCN)cc21.Cl.[Cl-] [Example 25, 2-{[(3-Amino-6-bromopyrazin-2-yl)formamido]methyl}-6-(2-aminoethoxy)-1,3-diethyl-1H-1,3-benzodiazol-3-ium hydrochloride chloride]	> 138	> 240	> 138	59	–	–
CCn1c(CNC(=O)c2nc(Br)cnc2N)[n+](Cc2ccccc2)c2ccc(C(F)(F)F)cc21.O=C[O-] [Example 19, 2-{[(3-Amino-6-bromopyrazin-2-yl)formamido]methyl}-3-benzyl-1-ethyl-6-(trifluoromethyl)-1H-1,3-benzodiazol-3-ium formate]	–	–	–	17	–	240
CCn1c(CNC(=O)c2nc(Br)cnc2N)[n+](CC)c2ccc(OCCNC(=O)OC(C)(C)C)cc21.O=C[O-] [Example 24, 2-{[(3-amino-6-bromopyrazin-2-yl)formamido]methyl}-6-(2-{[(tert-butoxy)carbonyl]amino}ethoxy)-1,3-diethyl-1H-1,3-benzodiazol-3-ium formate]	37	73	59	42	–	–
CCn1c(CNC(=O)c2nc(Br)cnc2N)[n+](C)c2ccc(Cl)cc21.O=CO.O=C[O-] [Example 11, 2-{[(3-amino-6-bromopyrazin-2-yl)formamido]methyl}-6-chloro-1-ethyl-3-methyl-1H-1,3-benzodiazol-3-ium formic acid formate]	4	–	–	6	138	240
CCn1c(CNC(=O)c2nc(Br)cnc2N)[n+](CCOCCOCCO)c2ccc(OC)cc21.O=C[O-] [Example 4, 2-{[(3-amino-6-bromopyrazin-2-yl)formamido]methyl}-1-ethyl-3-{2-[2-(2-hydroxyethoxy)ethoxy]ethyl}-6-methoxy-1H-1,3-benzodiazol-3-ium formate]	8	–	86	16	–	240
CCn1c(CNC(=O)c2nc(Br)cnc2N)[n+](CC)c2ccc(OC)cc21.O=C[O-] [Example 2, 2-{[(3-amino-6-bromopyrazin-2-yl)formamido]methyl}-1,3-diethyl-6-methoxy-1H-1,3-benzodiazol-3-ium formate]	3	90	58	5	–	–
CCn1c(CNC(=O)c2nc(Br)cnc2N)[n+](CC)c2ccc(C(=O)N[C@@H]3CCOC3=O)cc21 [Example 17, 2-{[(3-amino-6-bromopyrazin-2-yl)formamido]methyl}-1,3-diethyl-6-{[(3R)-2-oxooxolan-3-yl]carbamoyl}-1H-1,3-benzodiazol-3-ium formate]	29	101	135	32	–	–
CCn1c(CNC(=O)c2nc(Br)cnc2N)[n+](CCO)c2ccc(OC)cc21.O=C[O-] [Example 3, 2-{[(3-amino-6-bromopyrazin-2-yl)formamido]methyl}-1-ethyl-3-(2-hydroxyethyl)-6-methoxy-1H-1,3-benzodiazol-3-ium formate]	4	–	89	13	–	240
CCn1c(CNC(=O)c2nc(Br)cnc2N)[n+](CC)c2ccc(-c3cnn(C4CCNCC4)c3)cc21.Cl.[I-] [Example 21, 2-{[(3-amino-6-bromopyrazin-2-yl)formamido]methyl}-1,3-diethyl-6-[1-(piperidin-4-yl)-1H-pyrazol-4-yl]-1H-1,3-benzodiazol-3-ium hydrochloride iodide]	77	66	92	25	–	–
CCn1c(CNC(=O)c2nc(Br)cnc2N)[n+](C)c2ccc(OC(F)(F)F)cc21.O=C[O-] [Example 14, 2-{[(3-amino-6-bromopyrazin-2-yl)formamido]methyl}-1-ethyl-3-methyl-6-(trifluoromethoxy)-1H-1,3-benzodiazol-3-ium formate]	11	205	–	28	138	–
CCn1c(CNC(=O)c2nc(Br)cnc2N)[n+](C)c2ccc(F)cc21.O=C[O-] [Example 12, 2-{[(3-amino-6-bromopyrazin-2-yl)formamido]methyl}-1-ethyl-6-fluoro-3-methyl-1H-1,3-benzodiazol-3-ium formate]	4	–	111	–	–	–
CCn1c(CNC(=O)c2nc(SC)cnc2N)[n+](C)c2ccc(OC)cc21.[I-] [Example 9, 2-({[3-amino-6-(methylsulfanyl)pyrazin-2-yl]formamido}methyl)-1-ethyl-6-methoxy-3-methyl-1H-1,3-benzodiazol-3-ium iodide]	3	–	5	–	–	–
